Data on two compounds can be found in patent US5876676A, “Preservation of blood platelets” (priority 1996, dated 1999).

For data set [1] the following is noted: following intracellular microinjection; cited from earlier work.
Another data set concerns platelets. Briefly: Nucleation activity of cytoskeletons from platelets pre-incubated with cytochalasin B (pyrene-actin assembly, Table III). The data set is classed as cell-based, human. The note with it: for Assembly rate (barbed end): cytochalasin washed out; for Assembly rate (barbed end) / Assembly rate (pointed end): n=4. The procedure: The effect of inhibiting barbed end actin assembly in thrombin-activated cells before detergent lysis on the amount of nucleation activity was determined by preincubating resting platelet suspensions with 2 uM cytochalasin B for 5 min. Because it was necessary to wash out the cytochalasin B from some of the cytoskeletons before addition of the cell lysates to the pyrene assembly assay, the cells were first attached to glass coverslips while still in the presence of cytochalasin B. This was accomplished by sedimenting 0.3 ml of cell suspension onto a 12 mm round glass coverslip for 5 min at 250 g. Individual coverslips were removed, treated with thrombin for 15 s in the presence of cytochalasin B, permeabilized with 1× PHEM-Triton buffer containing 2 uM cytochalasin B for 15 s and then washed in PHEM buffer in the presence or absence of cytochalasin B. Coverslips were then immediately assayed for their ability to promote actin filament assembly as previously described by us using glass adherent macrophage cytoskeletons (Hartwig, J., and P. Janmey, 1989 Biochim. Biophys. Acta. 1010:64-71).
In reference to Table III, resting platelets were incubated with 2 μM cytochalasin B for 5 min, then adhered by centrifugation to 12-mm round glass coverslips coated with polylysine. Cells on the coverslips were exposed to 1 U/ml of thrombin for 30 s in the presence of cytochalasin B and then permeabilized with PHEM-Triton buffer. […] There were 4.2×10^7 platelets per assay. The data are expressed as mean ± SD, n=4. The barbed end assembly rate, initial pointed end addition rate and initial barbed end addition rate were as described in Table I.

The subject of the next data set is mice. The following applies: cited from earlier work.
The subject of data set [2] is pointed end actin nuclei in soluble fraction of platelet lysates. The data set is described as follows: Calcium-sensitive soluble nucleation activity in supernatants of platelet lysates (pyrene-actin assembly). It is filed as biochemical, human. The procedure: (§1) The effect of cell lysates on the rate and extent of pyrene-labeled rabbit skeletal muscle actin was determined as described previously (Hartwig, J., and P. Janmey, 1989 Biochim. Biophys. Acta. 1010:64-71). Suspensions of resting or thrombin-activated cells at concentrations of 1.4×10^8 /ml were permeabilized by the addition of 0.1 volume of 60 mM Pipes, 25 mM Hepes, 10 mM EGTA, 2 mM MgCl2, 0.75% Triton and 42 nM leupeptin, 10 mM benzamidine, and 0.123 mM aprotinin to inhibit proteases (Schliwa, J., et al., 1981 Proc. Natl. Acad. Sci. USA 80:5417-5420). 100 ul of detergent lysate was added to 190 ul of 100 mM KCl, 2 mM MgCl2, 0.5 mM ATP, 0.1 mM EGTA, 0.5 mM dithiothreitol, and 10 mM Tris, pH 7.0 and the polymerization rate assay was started by the addition of monomeric pyrene-labeled rabbit skeletal muscle actin to a final concentration of 2 uM. The relative contribution of nuclei with barbed or pointed ends in the cell lysates was determined by adding 2 uM cytochalasin B to the pyrene nucleation assay system. […] Activity not inhibited by cytochalasin B is considered pointed end assembly. The stability of nucleation activity in cell lysates was tested by comparing the stimulatory effect of fresh lysate on actin assembly with lysates allowed to stand for 30 s to 30 min at 37° C. before addition to the assembly assay. To determine if the measured stimulation of actin assembly and its decay with time was due to the growth of pyrene-actin addition onto cellular filaments subject to depolymerization in the diluted lysate, 0.1 uM phalloidin or phallacidin was added to the cell lysates during their preparation to stabilize the filaments. As shown in the results, all nucleation activity present in resting and activated cells was associated with the detergent-insoluble cytoskeleton. However, we also determined that the soluble phase from cells permeabilized with detergent in the presence of EGTA contained calcium dependent nucleation activity. Detergent lysates from resting and thrombin-activated cells (30 s, 1 U/ml) were centrifuged at 10,000 g for 2 min at room temperature in a microcentrifuge. The supernatant was removed and added to the pyrene-based nucleation assay in the presence of 1 mM EGTA or CaCl2. The amount of pointed end activity in these soluble extracts was determined by adding a final concentration of 2 uM cytochalasin B to the pyrene-actin assembly assay.
In reference to Table II, lysates were prepared from resting thrombin-treated cells with detergent and centrifuged in a Sorvall Microspin 12S at 13,000 rpm for 1 min. Nucleation activity remaining in the supernatant after removal of the cytoskeletal fraction was determined. […] The data are expressed as mean±SD, n=4. […]

In another data set the test system is cells in vitro. The following applies: cited from earlier work.
The subject of data set [3] is barbed end of actin filaments. Briefly: Pyrene-labeled actin assembly (nucleation) assay in detergent lysates of resting and thrombin-activated platelets. It is filed as biochemical, human. The procedure:
as §1, with “The stability of nucleation activity in cell lysates was tested by comparing the stimulatory effect of fresh lysate on actin assembly with lysates allowed to stand for 30 s to 30 min at 37° C. before addition to the assembly assay.” left out, “As shown in the results, all nucleation activity present in resting and activated cells was associated with the detergent-insoluble cytoskeleton.” left out, “Detergent lysates from resting and thrombin-activated cells (30 s, 1 U/ml) were centrifuged at 10,000 g for 2 min at room temperature in a microcentrifuge. The supernatant was removed and added to the pyrene-based nucleation assay in the presence of 1 mM EGTA or CaCl2.” left out
In reference to Table I, gel-filtered platelets were suspended to a concentration of 1.4×10^8 /ml in platelet buffer, rested for 30 minutes at 37° C., and then treated with or without 1 U/ml of thrombin for 15 s. […] Data are expressed as mean±SD, n=4.

[4] abbreviates: Activated: 2 μM cytochalasin B, 1 U/ml thrombin 30 s.
[5] abbreviates: Activated: 2 μM cytochalasin B, then 1 U/ml thrombin 30 s.
[6] abbreviates: Resting platelets incubated with 2 μM cytochalasin B.
Where [7] appears, read: Resting platelets incubated with 2 μM cytochalasin B 5 min.
Setting [8] is: Activated (thrombin), + 2 μM CB, supernatant, mean±SD, n=4.

Consider `O=C(O)CN(CC(=O)O)c1ccccc1OCCOc1ccccc1N(CC(=O)O)CC(=O)O` [BAPTA, 1,2-bis(2-aminophenoxy) ethane N,N,-N',N'-tetraacetic acid], for which, in data set [1], the “Binding to membranes or toxic effects” value was “little or no”.

As a reminder, the LD50 is the dose expected to kill half of the subjects tested. Consider `C=C1C(C)C2C(Cc3ccccc3)NC(=O)C23OC(=O)C=CC(O)CCCC(C)CC=CC3C1O` (stereo not shown) [cytochalasin B], for which the “Nucleation activity after cytochalasin B treatment of resting cells” value in the data set with platelets (2 μM cytochalasin B, resting platelets) is reported as “did not by itself result in nucleation activity”. In the data set with platelets (setting [4]), the Barbed nuclei/platelet is 380, the Pointed nuclei/platelet is on record as 1,980, the “Subunits added to barbed ends” value worked out at 3.9e+11 s⁻¹ and the “Subunits added to pointed ends” value was 9.95e+10 s⁻¹. In the data set with platelets (setting [5]), the “Assembly rate (barbed end)” value was 1.59 nM/s and the “Assembly rate (pointed end)” value is 0.55 nM/s. Besides, in the data set with platelets (setting [6]), the Barbed nuclei/platelet came out at 50, the Pointed nuclei/platelet was 1,980, the “Subunits added to barbed ends” value was 2e+10 s⁻¹ and the “Subunits added to pointed ends” value came to 9.95e+10 s⁻¹. Moreover, in the data set on platelets (setting [7]), the “Assembly rate (barbed end)” value was determined as 0.18 nM/s and the “Assembly rate (pointed end)” value came out at 0.55 nM/s. In addition, the “Stimulation of pyrene-actin assembly rate by thrombin-activated, cytochalasin B-treated cytoskeletons compared with resting cells incubated with cytochalasin B” value with platelets (cytochalasin present during activation, washed away before assay) is given as “four-fold”. For the same compound, in the data set on mice (intraperitoneal), the median lethal dose (LD50) was 50 mg/kg and the “Time to clearance from all tissues but liver” value was at most 24 h. The “Recovery of injected cytochalasin B” value in the data set on mice (within a few minutes following injection) is on record as 35%. The “Calcium-dependent soluble actin nucleation activity” value in data set [2] (2 uM cytochalasin B, soluble fraction, thrombin-activated platelets) is reported as “completely unaffected”. Also, in data set [2] (setting [8]), the “Assembly Rate” value came to 0.55 ± 0.02 nM/s, the Pointed nuclei/platelet is recorded as 5,000 ± 250 and the “Subunits added to pointed ends” value was 1.0 ± 0.05 ×10^10 s^-1. Besides, in the data set with cells in vitro (2 h), the MNTC is at most 200 µM and the Non-cytotoxic concentration entry is “up to 100 ug/ml”. The “Cytotoxicity on prolonged exposure” value with cells in vitro is reported as “reversible cytotoxicity”. In data set [3] (2 uM cytochalasin B), the “Pyrene actin assembly onto actin filaments at the barbed end” value is “completely inhibited”. Further, the “Stimulatory effect of lysates on pyrene-actin assembly rate” value in data set [3] (2 uM cytochalasin B added to assay, lysates of platelets activated with 1 U/ml thrombin) was “abolished”. Further, the “Effect on nucleation activity of lysates from resting cells” value in data set [3] (2 uM cytochalasin B added to lysates, resting platelets) is “only a small effect”.
